These results are taken from ChEMBL document CHEMBL1147488, “Methanesulfonamide group at position-4 of the C-5-phenyl ring of 1,5-diarylpyrazole affords a potent class of cyclooxygenase-2 (COX-2) inhibitors” (Bioorg Med Chem Lett, 2004).

The target of assay [1] is T1, Prostaglandin G/H synthase 1 (Ovis aries) (UniProt P05979).
T1 sequence (whole entry): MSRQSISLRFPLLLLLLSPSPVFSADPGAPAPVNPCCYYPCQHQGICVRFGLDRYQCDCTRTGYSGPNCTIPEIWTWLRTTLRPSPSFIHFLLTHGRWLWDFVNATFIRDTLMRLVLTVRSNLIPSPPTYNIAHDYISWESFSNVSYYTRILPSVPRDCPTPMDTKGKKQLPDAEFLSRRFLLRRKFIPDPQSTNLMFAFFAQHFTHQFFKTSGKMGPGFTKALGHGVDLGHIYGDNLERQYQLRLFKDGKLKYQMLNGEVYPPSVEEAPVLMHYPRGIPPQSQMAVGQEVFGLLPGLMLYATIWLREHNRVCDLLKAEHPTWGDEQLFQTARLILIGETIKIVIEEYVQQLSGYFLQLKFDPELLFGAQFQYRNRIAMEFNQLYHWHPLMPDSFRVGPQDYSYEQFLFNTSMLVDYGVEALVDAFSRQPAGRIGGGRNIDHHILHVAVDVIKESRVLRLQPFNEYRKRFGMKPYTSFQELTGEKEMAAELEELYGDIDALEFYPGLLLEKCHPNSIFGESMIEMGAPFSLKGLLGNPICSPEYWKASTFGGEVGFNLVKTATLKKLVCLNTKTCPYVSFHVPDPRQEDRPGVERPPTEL
As to conditions: at 10 µM.
Description: In vitro inhibitory activity against prostaglandin G/H synthase 1 (COX-1) from the microsomal fraction of ram seminal vesicles at 10 uM concentration

For assay [2], the target named is T2, Prostaglandin G/H synthase 2 (Homo sapiens) (UniProt P35354).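 Also: in vitro assay on recombinant human COX-2 produced in baculovirus-infected Sf9 insect cells.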
T2 sequence (whole entry): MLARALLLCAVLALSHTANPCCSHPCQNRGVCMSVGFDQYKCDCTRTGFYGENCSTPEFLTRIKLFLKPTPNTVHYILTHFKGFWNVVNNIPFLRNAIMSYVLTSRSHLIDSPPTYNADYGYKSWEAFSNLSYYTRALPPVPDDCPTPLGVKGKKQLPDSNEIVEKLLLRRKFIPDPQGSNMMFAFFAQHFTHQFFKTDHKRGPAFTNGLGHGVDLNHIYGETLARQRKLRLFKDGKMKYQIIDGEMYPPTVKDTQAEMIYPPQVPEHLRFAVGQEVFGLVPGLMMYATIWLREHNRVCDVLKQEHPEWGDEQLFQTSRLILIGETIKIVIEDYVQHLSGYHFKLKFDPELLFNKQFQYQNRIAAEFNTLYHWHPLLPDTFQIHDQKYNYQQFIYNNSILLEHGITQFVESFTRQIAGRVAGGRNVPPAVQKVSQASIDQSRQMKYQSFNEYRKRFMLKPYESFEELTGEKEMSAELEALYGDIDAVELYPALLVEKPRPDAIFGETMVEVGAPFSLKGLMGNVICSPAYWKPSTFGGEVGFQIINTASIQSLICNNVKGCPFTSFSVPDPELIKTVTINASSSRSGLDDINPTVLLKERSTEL
As to conditions: Sf9; at 10 µM.
Description: In vitro inhibitory activity against human recombinant prostaglandin G/H synthase 2 (COX-2) at 10 uM expressed in sf-9 cells infected with baculovirus

Assay [3] deals with T3, Prostaglandin G/H synthase 1 (Ovis aries, UniProt P05979).
T3 sequence (P05979 whole entry): T1 sequence (whole entry)
The experiment in a line: In vitro inhibitory activity against prostaglandin G/H synthase 1 from the microsomal fraction of ram seminal vesicles.

pIC50: −log10 of the molar value.

On to `CC(=O)Nc1ccc(-c2cc(C)nn2-c2ccc(Br)cc2)cc1`, for which the values for the inhibition in assay [1] and in assay [2] were 9% and 80%, respectively. Also, the pIC50 in assay [3] is 4.88.

Take `CS(=O)(=O)Nc1ccc(-c2cc(C(F)F)nn2-c2ccccc2Cl)cc1`: the results for the inhibition in assay [1] and in assay [2] were 66% and 22%, respectively.

Regarding `CS(=O)(=O)Nc1ccc(-c2cc(C(F)(F)F)nn2-c2ccccc2)cc1`, the inhibition was found to be 0% in assay [1] and 100% in assay [2]. This compound showed a pIC50 in assay [3] of 4.07.

On to `CCC(=O)N(c1ccc(-c2cc(C(F)F)nn2-c2ccc(Cl)cc2)cc1)S(C)(=O)=O`, for which the inhibition in assay [1] stood at 100%; in assay [2], 36%.

`CS(=O)(=O)Nc1ccc(-c2cc(C(F)(F)F)nn2-c2ccc(N)cc2)cc1`: the inhibition was 22% in assay [1] and 69% in assay [2]. The same compound had a pIC50 in assay [3] of 4.50.

Regarding `Cc1cc(-c2ccc(NS(C)(=O)=O)cc2)n(-c2ccc([N+](=O)[O-])cn2)n1`, the inhibition stood at 0% in assay [1] and 13% in assay [2].

`CS(=O)(=O)Nc1ccc(-c2cc(C(F)F)nn2-c2ccc(S(N)(=O)=O)cc2CO)cc1`: the inhibition in assay [1] was determined as 100%; in assay [2] it was 0%.

`CS(=O)(=O)Nc1ccc(-c2cc(C(F)(F)F)nn2-c2ccc(Cl)cc2)cc1`: the values for the inhibition in assay [1] and in assay [2] were 25% and 100%, respectively. In assay [3], this compound gave a pIC50 of 4.81.

Turning to `CS(=O)(=O)Nc1ccc(-c2cc(C(F)(F)F)nn2-c2cccc(Cl)c2)cc1`, the inhibition in assay [1] was found to be 96%; in assay [2] it was 3%.

With `CS(=O)(=O)Nc1ccc(-c2cc(C(F)(F)F)nn2-c2ccc(F)c(F)c2)cc1`, the inhibition in assay [1] came to 32%; in assay [2] it was 59%.

For `CNc1ccc(-n2nc(C(F)(F)F)cc2-c2ccc(NS(C)(=O)=O)cc2)cc1`, the inhibition was 14% in assay [1] and 42% in assay [2].

With `CS(=O)(=O)Nc1ccc(-c2cc(C(F)F)nn2-c2ccc(Cl)cc2)cc1`, the inhibition was found to be 0% in assay [1] and 100% in assay [2]. In assay [3], this compound showed a pIC50 of 4.20.

For the compound `CCCC(=O)N(c1ccc(-c2cc(C(F)F)nn2-c2ccc(Cl)cc2)cc1)S(C)(=O)=O`, the inhibition was 100% in assay [1] and 42% in assay [2].

Take `CS(=O)(=O)Nc1ccc(-c2cc(C(F)F)nn2-c2ccccc2F)cc1`: the results for the inhibition in assay [1] and in assay [2] were 90% and 89%, respectively.

With `CS(=O)(=O)Nc1ccc(-c2cc(C(F)(F)F)nn2-c2ccc(F)cc2)cc1`, the values for the inhibition in assay [1] and in assay [2] were 6% and 65%, respectively. In assay [3], this compound showed a pIC50 of 4.69.

With `Cc1ccc(S(=O)(=O)Nc2ccc(-c3cc(C(F)(F)F)nn3-c3ccc(Cl)cc3)cc2)cc1`, the inhibition was found to be 0% in assay [1] and 70% in assay [2].

Regarding `CS(=O)(=O)Nc1ccc(-c2cc(C(F)F)nn2-c2cccc(F)c2)cc1`, the inhibition in assay [1] turned out to be 97%; in assay [2], 67%.

In the case of `CS(=O)(=O)Nc1ccc(-c2cc(C(F)(F)F)nn2-c2ccc(S(N)(=O)=O)cc2CO)cc1`, the values for the inhibition in assay [1] and in assay [2] were 42% and 12%, respectively.

In the case of `CCCC(=O)N(c1ccc(-c2cc(C(F)(F)F)nn2-c2ccc(Cl)cc2)cc1)S(C)(=O)=O`, the values for the inhibition in assay [1] and in assay [2] were 0% and 62%, respectively.

As to `CS(=O)(=O)Nc1ccc(-c2cc(C(F)F)nn2-c2ccc(F)cc2)cc1`, the inhibition worked out at 22% in assay [1] and 62% in assay [2].

On to `CS(=O)(=O)Nc1ccc(-c2cc(C(F)F)nn2-c2ccc(F)c(F)c2)cc1`, for which the inhibition in assay [1] is 11%; in assay [2], 36%.

Regarding `CS(=O)(=O)Nc1ccc(-c2cc(C(F)(F)F)nn2-c2ccc(Br)cc2)cc1`, the inhibition in assay [1] worked out at 88%; in assay [2] it was 100%. The pIC50 in assay [3] was 5.31.

`CC(=O)N(c1ccc(-c2cc(C(F)(F)F)nn2-c2ccc(Cl)cc2)cc1)S(C)(=O)=O`: the inhibition in assay [1] was determined as 0%; in assay [2], 63%.

As to `CC(=O)Nc1ccc(-c2cc(C(F)(F)F)nn2-c2ccc(Br)cc2)cc1`, the inhibition is 100% in assay [1] and 87% in assay [2]. In assay [3], this compound had a pIC50 of 5.46.

Take `CS(=O)(=O)Nc1ccc(-c2cc(C(F)(F)F)nn2-c2ccccc2F)cc1`: the inhibition in assay [1] came to 97%; in assay [2], 89%.

For `Cc1cc(-c2ccc(NS(C)(=O)=O)cc2)n(-c2ccc(Br)cc2)n1`, the inhibition was 10% in assay [1] and 100% in assay [2]. The pIC50 in assay [3] is 4.20.

With `CS(=O)(=O)Nc1ccc(-c2cc(C(F)(F)F)nn2-c2ccc([N+](=O)[O-])cc2)cc1`, the inhibition in assay [1] worked out at 34%; in assay [2], 0%.

Regarding `CCC(=O)N(c1ccc(-c2cc(C(F)(F)F)nn2-c2ccc(Cl)cc2)cc1)S(C)(=O)=O`, the inhibition in assay [1] worked out at 18%; in assay [2] it was 65%.

As for `CS(=O)(=O)Nc1ccc(-c2cc(C(F)(F)F)nn2-c2ccc(Cl)c(Cl)c2)cc1`, the inhibition in assay [1] worked out at 10%; in assay [2] it was 70%.

As for `CS(=O)(=O)Nc1ccc(-c2cc(C(F)(F)F)nn2-c2cccc(F)c2)cc1`, the inhibition stood at 49% in assay [1] and 70% in assay [2].

For the compound `Cc1cc(-c2ccc(NS(C)(=O)=O)cc2)n(-c2ccc(F)cc2)n1`, the figures for the inhibition in assay [1] and in assay [2] were 0% and 25%, respectively.

As for `Cc1cc(-c2ccc(NS(C)(=O)=O)cc2)n(-c2ccc([N+](=O)[O-])cc2)n1`, the inhibition in assay [1] turned out to be 40%; in assay [2], 0%.

As for `CS(=O)(=O)Nc1ccc(-c2cc(C(F)F)nn2-c2ccccc2)cc1`, the inhibition in assay [1] was determined as 22%; in assay [2], 31%.

Turning to `CS(=O)(=O)Nc1ccc(-c2cc(C(F)F)nn2-c2ccc(Cl)c(Cl)c2)cc1`, the inhibition in assay [1] was determined as 43%; in assay [2] it was 71%.

For `CN(C)c1ccc(-n2nc(C(F)(F)F)cc2-c2ccc(NS(C)(=O)=O)cc2)cc1`, the inhibition in assay [1] came to 85%; in assay [2], 100%. This compound had a pIC50 in assay [3] of 5.47.

With `CS(=O)(=O)Nc1ccc(-c2cc(C(F)(F)F)nn2-c2ccc([N+](=O)[O-])cn2)cc1`, the inhibition in assay [1] was 0%; in assay [2], 13%.

In the case of `CS(=O)(=O)N(c1ccc(-c2cc(C(F)(F)F)nn2-c2ccc(Cl)cc2)cc1)S(C)(=O)=O`, the inhibition in assay [1] was 14%; in assay [2], 13%.

As to `Cc1cc(-c2ccc(NS(C)(=O)=O)cc2)n(-c2ccccc2)n1`, the inhibition is 34% in assay [1] and 7% in assay [2].

As to `CC(=O)N(c1ccc(-c2cc(C(F)F)nn2-c2ccc(Cl)cc2)cc1)S(C)(=O)=O`, the results for the inhibition in assay [1] and in assay [2] were 66% and 17%, respectively.

For the compound `CC(=O)Nc1ccc(-c2cc(C(F)(F)F)nn2-c2ccc(S(N)(=O)=O)cc2CO)cc1`, the inhibition stood at 59% in assay [1] and 0% in assay [2].

Consider `Cc1cc(-c2ccc(NS(C)(=O)=O)cc2)n(-c2ccc(Cl)cc2)n1`, for which the inhibition in assay [1] was 0%; in assay [2], 88%. In addition, the pIC50 in assay [3] is 4.00.

Usually inhibition stands for the percentage by which the read-out fell short of the control. Higher therefore signals a response far below the control. The pIC50 is the IC50 on a negative log10 scale, so that one unit is a factor of ten.
